Consider 10 molecules from patent US11220524B2, “Selective inhibitors of protein arginine methyltransferase 5 (PRMT5)” (PRELUDE THERAPEUTICS, INCORPORATED, priority 2017, dated 2022).

SMILES strings stand for the structures. Structures can show the parent of a compound that is named as a salt.

Experiment [1] has as its target PRMT5/MEP50 complex (Homo sapiens (Human), UniProt O14744). Description: Biochemical assay: PRMT5/MEP50 methylation of histone H2A with 3H-SAM, filter plate scintillation. The conditions noted are these: biochemical potency; read-out: PRTMT5/MEP50 IC50. On the procedure: Biochemical Assay Protocol
Compounds were solubilized, and 3-fold diluted in 100% DMSO. […] Standard reactions were performed in a total volume of […] assay buffer, with histone H2A (5 μM final) as substrate. To this was added the PRMT5/MEP50 complex diluted to provide a final assay concentration of 5 nM and the compounds were allowed to preincubate for 15 to 20 minutes at room temperature. The reaction was initiated by adding S-[3H-methyl]-adenosyl-L-methionine (PerkinElmer) to final concentration of 1 μM. Following a 60 minutes incubation at 30° C., the reaction was stopped by adding 100 μL of 20% TCA. Each reaction was spotted onto filter plate (MultiScreen FB Filter Plate, Millipore), and washed 5 times with PBS buffer, Scintillation fluid was added to the filter plate and read in a scintillation counter. IC50 values were determined by fitting the data to the standard 4 parameters with Hill Slope using GraphPad Prism software.

Experiment [2] concerns Symmetric Di-Methyl Arginine (sDMA) in Granta-519 cells. Description: Western blot for symmetric di-methyl arginine (sDMA) marks in Granta cells, 3 days treatment. The experiment is classed as cell-based. The settings on record: Homo sapiens, 3 days. On the procedure:
Cell Treatment and Western Blotting for Detecting Symmetric Di-Methyl Arginine (sDMA) and Histone H3R8 Dimethyl Symmetric (H3R8me2s) Marks
Initial compounds screening in A549 cells: Compounds were dissolved in DMSO to make 10 mM stock and further diluted to 0.1, and 1 mM. A549 cells were maintained in PRMI 1640 (Corning Cellgro, Catalog #: 10-040-CV) medium supplemented with 10% v/v FBS (GE Healthcare, Catalog #: SH30910.03). One day before experiment, 1.25×10^5 cells were seeded in 6 well plate in 3 mL medium and incubated overnight. The next day, medium was changed and 3 uL of compound solution was added (1:1,000 dilution, 0.1 and 1 uM final concentration; DMSO concentration: 0.1%), and incubated for 3 days. Cells incubated with DMSO was used as a vehicle control. Cells were washed once with PBS, trypsinized in 150 uL 0.25% Trypsin (Corning, Catalog #: 25-053-CI), neutralized with 1 mL complete medium, transferred to microcentrifuge tubes and collected. Cell pellet was then resuspended in 15 uL PBS, lysed in 4% SDS, and homogenized by passing through homogenizer column (Omega Biotek, Catalog #: HCR003). Total protein concentrations were determined by BCA assay (ThermoFisher Scientific, Catalog #: 23225). Lysates were mixed with 5× Laemmli buffer and boiled for 5 min. Forty ug of total protein was separated on SDS-PAGE gels (Bio-Rad, catalog #: 4568083, 4568043), transferred to PVDF membrane, blocked with 5% dry milk (Bio-Rad, Catalog #: 1706404) in TBS with 0.1% v/v Tween 20 (TBST) for 1 hour at room temperature (RT), and incubated with primary antibodies (sDMA: Cell signaling, Catalog #: 13222, 1:3,000; H3R8me2s: Epigentek, Catalog #: A-3706-100, 1:2,000; β-Actin: Abcam, Catalog #: ab8227, 1:10,000) in 5% dry milk in TBST at 4° C. for overnight. The next day, membranes were washed with TBST, 5×5 min, and incubated withhP conjugated seconded antibody (GE Healthcare; Catalog #: NA934-1ML; 1:5,000) for 2 hours at RT, followed by 5×5 min washes with TBST, and incubation with ECL substrates (Bio-Rad, Catalog #: 1705061, 1705062). Chemiluminescent signal was captured with FluoChem HD2 imager (Proteinsimple) and analyzed by ImageJ.
Cells incubated with DMSO was used as a vehicle control. Cells were harvested and subjected to western blot analysis as described above. SmD3me2s and H3R8me2s bands were quantified by ImageJ. Signals were normalized to β-Actin and DMSO control. IC50 values were calculated using Graphpad Prism.
For orientation: Immunoblotting shows a protein as a band on a membrane.

[3] abbreviates: Granta-519, 72 h, Granta cell line.

Sequence of PRMT5/MEP50 complex (O14744 whole entry): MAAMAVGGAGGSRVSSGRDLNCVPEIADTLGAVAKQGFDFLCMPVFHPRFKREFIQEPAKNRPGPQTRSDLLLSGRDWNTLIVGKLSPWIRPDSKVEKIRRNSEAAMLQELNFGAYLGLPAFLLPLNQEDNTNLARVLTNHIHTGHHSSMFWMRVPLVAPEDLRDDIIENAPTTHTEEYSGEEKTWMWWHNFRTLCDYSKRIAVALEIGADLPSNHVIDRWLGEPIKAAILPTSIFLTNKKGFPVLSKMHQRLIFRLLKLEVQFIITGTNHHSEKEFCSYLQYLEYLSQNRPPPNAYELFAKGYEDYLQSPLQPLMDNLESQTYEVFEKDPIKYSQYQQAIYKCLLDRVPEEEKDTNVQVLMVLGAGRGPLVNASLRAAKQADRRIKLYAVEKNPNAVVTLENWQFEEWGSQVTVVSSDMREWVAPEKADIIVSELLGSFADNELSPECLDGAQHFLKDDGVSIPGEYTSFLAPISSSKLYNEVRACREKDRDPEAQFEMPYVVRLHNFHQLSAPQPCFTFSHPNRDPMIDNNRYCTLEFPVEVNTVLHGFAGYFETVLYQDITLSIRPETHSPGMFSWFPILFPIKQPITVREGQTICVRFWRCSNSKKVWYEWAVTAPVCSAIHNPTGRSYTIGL
Sequence of PRMT5/MEP50 complex (Q9BQA1 whole entry partner): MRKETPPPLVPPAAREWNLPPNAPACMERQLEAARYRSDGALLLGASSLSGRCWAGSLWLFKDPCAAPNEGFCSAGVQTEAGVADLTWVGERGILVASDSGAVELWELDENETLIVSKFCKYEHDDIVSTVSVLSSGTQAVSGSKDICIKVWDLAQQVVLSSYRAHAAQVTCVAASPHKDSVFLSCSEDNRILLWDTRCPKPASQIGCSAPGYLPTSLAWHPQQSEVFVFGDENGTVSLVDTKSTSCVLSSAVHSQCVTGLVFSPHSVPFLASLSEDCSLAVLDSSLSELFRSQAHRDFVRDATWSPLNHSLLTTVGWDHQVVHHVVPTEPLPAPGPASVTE

`CC(c1ccc(Cl)cc1)C1O[C@@H](n2ccc3c(N)ncnc32)[C@H](O)[C@@H]1O` (stereo in doubt) [Example 6-C, (2R,3R,4S,5S)-2-(4-amino-7H-pyrrolo[2,3-d]pyrimidin-7-yl)-5-(1-(4-chlorophenyl)ethyl)tetrahydrofuran-3,4-diol]: the figures for the IC50 in experiment [1] and in experiment [2] (setting [3]) were 0.0069 µM and 0.093 µM, respectively.
The matching figures for `Cc1cc([C@@](C)(O)[C@H]2O[C@@H](n3cnc4c(N)ncnc43)[C@H](O)[C@@H]2O)ccc1Cl` [Example 2-C, (2R,3R,4S,5S)-2-(6-amino-9H-purin-9-yl)-5-((R)-1-(4-chloro-3-methylphenyl)-1-hydroxyethyl)tetrahydrofuran-3,4-diol]: 0.0135 µM and 0.013 µM.
The matching figures for `C[C@@](O)(c1ccc(Cl)c(Cl)c1)[C@H]1O[C@@H](n2cc(F)c3c(N)ncnc32)[C@H](O)[C@@H]1O` [Example 3-C, (2R,3R,4S,5S)-2-(4-amino-5-fluoro-7H-pyrrolo[2,3-d]pyrimidin-7-yl)-5-((R)-1-(3,4-dichlorophenyl)-1-hydroxyethyl)tetrahydrofuran-3,4-diol]: 0.0009 µM and 0.0038 µM.
In the case of `C[C@@H](c1ccc(Cl)cc1)[C@H]1O[C@@H](n2ccc3c(N)ncnc32)[C@H](O)[C@@H]1O` [Example 5-C, (2R,3R,4S,5R)-2-(4-amino-7H-pyrrolo[2,3-d]pyrimidin-7-yl)-5-((S)-1-(4-chlorophenyl)ethyl)tetrahydrofuran-3,4-diolhydrochloride], the IC50 in experiment [2] (setting [3]) was determined as 0.091 µM.
Consider `C[C@@](O)(c1ccc(Cl)c(F)c1)[C@H]1O[C@@H](n2cc(F)c3c(N)ncnc32)[C@H](O)[C@@H]1O` [Example 15-C, (2R,3R,4S,5S)-2-(4-amino-5-fluoro-7H-pyrrolo[2,3-d]pyrimidin-7-yl)-5-((R)-1-(4-chloro-3-fluorophenyl)-1-hydroxyethyl)tetrahydrofuran-3,4-diol], for which the figures for the IC50 in experiment [1] and in experiment [2] (setting [3]) were 0.001 µM and 0.0019 µM, respectively.
Take `C[C@@](O)(c1ccc(Cl)s1)[C@H]1O[C@@H](n2ccc3c(N)ncnc32)[C@H](O)[C@@H]1O` [Example 21-C, (2R,3R,4S,5S)-2-(4-amino-7H-pyrrolo[2,3-d]pyrimidin-7-yl)-5-((S)-1-(5-chlorothiophen-2-yl)-1-hydroxyethyl)tetrahydrofuran-3,4-diol]: the IC50 is 0.0009 µM in experiment [1] and 0.007 µM in experiment [2] (setting [3]).
For the molecule `N/N=c1/nc[nH]c2c1ccn2[C@@H]1C[C@H]([C@H](O)c2ccc(Cl)cc2)[C@@H](O)[C@H]1O` [Example 25-B, 7-[(1R,2S,3R,4R)-4-[(S)-(4-chlorophenyl)-hydroxy-methyl]-2,3-dihydroxy-cyclopentyl]-1H-pyrrolo[2,3-d]pyrimidin-4-one hydrazone hydrochloride], the figures for the IC50 in experiment [1] and in experiment [2] (setting [3]) were 0.047 µM and approximately 3 µM, respectively.
For the molecule `N/N=c1/nc[nH]c2c1ccn2[C@@H]1C[C@H]([C@H](O)c2ccc(F)c(F)c2)[C@@H](O)[C@H]1O` [Example 37-B, 7-[(1R,2S,3R,4R)-4-[(S)-(3,4-difluorophenyl)-hydroxy-methyl]-2,3-dihydroxy-cyclopentyl]-1H-pyrrolo[2,3-d]pyrimidin-4-one hydrazone hydrochloride], the figures for the IC50 in experiment [1] and in experiment [2] (setting [3]) were 0.0063 µM and 100 µM, respectively.
In turn, `CCO/N=c1\nc[nH]c2c1ccn2[C@@H]1O[C@H]([C@](C)(O)c2ccc(Cl)cc2)[C@@H](O)[C@H]1O` [Example 83, 7-((2R,3R,4S)-5-((R)-1-(4-chlorophenyl)-1-hydroxyethyl)-3,4-dihydroxytetrahydrofuran-2-yl)-1,7-dihydro-4H-pyrrolo[2,3-d]pyrimidin-4-one O-ethyl oxime] gave an IC50 in experiment [2] (72 h, Granta-519 cell line) of 0.097 µM.
Molecule `CO/N=c1/nc[nH]c2c1ccn2[C@@H]1O[C@H]([C@](C)(O)c2ccc(Cl)c(F)c2)[C@@H](O)[C@H]1O` [Example 96] gave an IC50 in experiment [2] (72 h, Granta-519 cell line) of 0.142 µM.
